Source: patent US7319086B1, “Method of prophylaxis and treatment and agents useful for same” (priority 1999, dated 2008)

What was measured:
Set-up in all cases: species or system P. gingivalis
[1] = target: binding of rHA2 or the gingipains (RgpA, Kgp) to hemoglobin (Porphyromonas gingivalis, UniProt Q51816, A1188S/A1219P/Q1165E); experiment: solution-phase competition assay, hemoglobin-coated wells (rHA2 or gingipains); settings: preincubated 1 hr, read-out: IC50, inhibition of binding to hemoglobin
Description: (§1) Data are representative of two separate experiments. The absence of contaminating protein in a 90 μg protoporphyrin IX preparation was verified by SDS-PAGE and by Coomassie dye binding.
(§2) The IC50s for ligand binding in solution phase competition assays were determined. […] Hemoglobin was used as it was considered to represent the dominant form of porphyrin presentation in the pathological environment of chronic periodontitis.

[2] = target: binding of rHA2 or the gingipains (RgpA, Kgp) to hemin (Porphyromonas gingivalis, UniProt Q51816, A1188S/A1219P/Q1165E); experiment: solution-phase competition assay, hemin-coated wells; settings: read-out: IC50, inhibition of binding to hemin
Description: as §1, §2

[3] = test system: rHA2; experiment: directed porphyrin binding: porphyrins linked by carbodiimide to ethylene diamine-coated wells; settings: propionic acid groups linked to fixed amines, compared with non-derivatized porphyrin; 125 ng/ml rHA2
Description: Microtiter wells were coated with 100 mM ethylene diamine (pH 4.7) then incubated with 90 μg/ml hemin, protoporphyrin IX, or hematoporphyrin overnight in 50% dimethyl formamide in the presence (+) or absence (−) of 10 mM carbodiimide. Wells were washed 4 times with water then the amount of porphyrin bound to the wells was determined by absorbance at 414 nm (striped bars). […] Error bars represent standard deviation of absorbance measurements. Diagrams of chemical structures for hemin, protoporphyrin IX, and hematoporphyrin are presented adjacent to corresponding data.
The inventors reasoned, therefore, that blocking access to the acidic region of protoporphyrin molecules would have an effect on rHA2-binding and allow more specific characterization of binding between the HA2 domain and the porphyrin ring. Modifying the ligand binding assay system used above, surfaces were first coated with ethylene diamine to provide fixed, free, primary amines for carbodiimide linkage of carboxylic acid groups.

Compound | IC50 [1] [µM] | IC50 [2] [µM] | rHA2-binding to carbodiimide-treated porphyrin [3]
C=CC1=C(C)c2cc3[nH]c(cc4nc(cc5[nH]c(cc1n2)c(C)c5CCC(=O)O)C(CCC(=O)O)=C4C)c(C)c3C=C [protoporphyrin IX] | 10 ± 2 | ~2.5 | 
hemin |  |  | almost eliminated
